{
  "source": "patent US10770169B2",
  "about": "“Method of providing a treatment to a subject based on a dynamic pathway map” (THE REGENTS OF THE UNIVERSITY OF CALIFORNIA, priority 2010, dated 2020)",
  "tested_on": "panel of 55 breast cancer cell lines",
  "test": "Cell growth inhibition assay (Cell Titer Glo, 72 h, 9 doses; GI50, TGI, LC50)",
  "assay_type": "cell-based, human",
  "settings": "Homo sapiens, read-out: GI50 (converted)",
  "note": "Like-named read-outs stand apart in the source and are kept apart here.",
  "data": [
    {"smiles": "CO[C@H]1C[C@@H]2CC[C@@H](C)[C@@](O)(O2)C(=O)C(=O)N2CCCC[C@H]2C(=O)O[C@H]([C@H](C)C[C@@H]2CC[C@@H](O)[C@H](OC)C2)CC(=O)[C@H](C)/C=C(\\C)[C@@H](O)[C@@H](OC)C(=O)[C@H](C)C[C@H](C)/C=C/C=C/C=C/1C", "note": "[Rapamycin]", "values": [
      {"measurement": "GI50", "setting": "AU565, AU565 cell line, censored GI50 values", "result": 31.6, "unit": "nM"},
      {"measurement": "GI50", "setting": "AU565, cell line AU565", "result": 31.6, "unit": "nM"},
      {"measurement": "GI50", "setting": "BT-20, BT20 cell line, censored GI50 values", "result": 13.5, "unit": "nM"},
      {"measurement": "GI50", "setting": "BT-20, cell line BT20", "result": 13.5, "unit": "nM"},
      {"measurement": "GI50", "setting": "BT-474, BT474 cell line, censored GI50 values", "result": 15.1, "unit": "nM"},
      {"measurement": "GI50", "setting": "BT-474, cell line BT474", "result": 15.1, "unit": "nM"},
      {"measurement": "GI50", "setting": "BT-483, BT483 cell line, censored GI50 values", "result": 1.66, "unit": "nM"},
      {"measurement": "GI50", "setting": "BT-483, cell line BT483", "result": 1.66, "unit": "nM"},
      {"measurement": "GI50", "setting": "BT-549, BT549 cell line, censored GI50 values", "result": 33100, "unit": "nM"},
      {"measurement": "GI50", "setting": "BT-549, cell line BT549", "result": 33100, "unit": "nM"},
      {"measurement": "GI50", "setting": "CAMA-1, CAMA1 cell line, censored GI50 values", "result": 15.1, "unit": "nM"},
      {"measurement": "GI50", "setting": "CAMA-1, cell line CAMA1", "result": 15.1, "unit": "nM"},
      {"measurement": "GI50", "setting": "HCC38, HCC38 cell line, censored GI50 values", "result": 33.9, "unit": "nM"},
      {"measurement": "GI50", "setting": "HCC38, cell line HCC38", "result": 33.9, "unit": "nM"},
      {"measurement": "GI50", "setting": "HCC70, HCC70 cell line, censored GI50 values", "result": 120, "unit": "nM"},
      {"measurement": "GI50", "setting": "HCC70, cell line HCC70", "result": 120, "unit": "nM"},
      {"measurement": "GI50", "setting": "HCC202, HCC202 cell line, censored GI50 values", "result": 5.01, "unit": "nM"},
      {"measurement": "GI50", "setting": "HCC202, cell line HCC202", "result": 5.01, "unit": "nM"},
      {"measurement": "GI50", "setting": "HCC1187, HCC1187 cell line, censored GI50 values", "result": 32.4, "unit": "nM"},
      {"measurement": "GI50", "setting": "HCC1187, cell line HCC1187", "result": 32.4, "unit": "nM"},
      {"measurement": "GI50", "setting": "HCC1419, HCC1419 cell line, censored GI50 values", "result": 4.37, "unit": "nM"},
      {"measurement": "GI50", "setting": "HCC1419, cell line HCC1419", "result": 4.37, "unit": "nM"},
      {"measurement": "GI50", "setting": "HCC1428, HCC1428 cell line, censored GI50 values", "result": 51.3, "unit": "nM"},
      {"measurement": "GI50", "setting": "HCC1428, cell line HCC1428", "result": 51.3, "unit": "nM"},
      {"measurement": "GI50", "setting": "HCC1500, HCC1500 cell line, censored GI50 values", "result": 93300, "unit": "nM"},
      {"measurement": "GI50", "setting": "HCC1500, cell line HCC1500", "result": 93300, "unit": "nM"},
      {"measurement": "GI50", "setting": "HCC1806, HCC1806 cell line, censored GI50 values", "result": 66100, "unit": "nM"},
      {"measurement": "GI50", "setting": "HCC1806, cell line HCC1806", "result": 66100, "unit": "nM"},
      {"measurement": "GI50", "setting": "HCC1937, HCC1937 cell line, censored GI50 values", "result": 1230, "unit": "nM"},
      {"measurement": "GI50", "setting": "HCC1937, cell line HCC1937", "result": 1230, "unit": "nM"},
      {"measurement": "GI50", "setting": "HCC1954, HCC1954 cell line, censored GI50 values", "result": 3.55, "unit": "nM"},
      {"measurement": "GI50", "setting": "HCC1954, cell line HCC1954", "result": 3.55, "unit": "nM"},
      {"measurement": "GI50", "setting": "HCC2185 cell line, censored GI50 values", "result": 1.62, "unit": "nM"},
      {"measurement": "GI50", "setting": "HCC3153 cell line, censored GI50 values", "result": 5620, "unit": "nM"},
      {"measurement": "GI50", "setting": "MCF7, MCF7 cell line, censored GI50 values", "result": 145, "unit": "nM"},
      {"measurement": "GI50", "setting": "MCF7, cell line MCF7", "result": 145, "unit": "nM"},
      {"measurement": "GI50", "setting": "MDA-MB-134-VI, MDAMB134VI cell line, censored GI50 values", "result": 6.76, "unit": "nM"},
      {"measurement": "GI50", "setting": "MDA-MB-157, cell line MDAMB157", "result": 166000, "unit": "nM"},
      {"measurement": "GI50", "setting": "MDA-MB-175-VII, MDAMB175VII cell line, censored GI50 values", "result": 3.72, "unit": "nM"},
      {"measurement": "GI50", "setting": "MDA-MB-231, MDAMB231 cell line, censored GI50 values", "result": 3550, "unit": "nM"},
      {"measurement": "GI50", "setting": "MDA-MB-231, cell line MDAMB231", "result": 3550, "unit": "nM"},
      {"measurement": "GI50", "setting": "MDA-MB-361, MDAMB361 cell line, censored GI50 values", "result": 741, "unit": "nM"},
      {"measurement": "GI50", "setting": "MDA-MB-361, cell line MDAMB361", "result": 741, "unit": "nM"},
      {"measurement": "GI50", "setting": "MDA-MB-415, MDAMB415 cell line, censored GI50 values", "result": 2.09, "unit": "nM"},
      {"measurement": "GI50", "setting": "MDA-MB-415, cell line MDAMB415", "result": 2.09, "unit": "nM"},
      {"measurement": "GI50", "setting": "MDA-MB-436, cell line MDAMB436", "result": 166000, "unit": "nM"},
      {"measurement": "GI50", "setting": "MDA-MB-468, MDAMB468 cell line, censored GI50 values", "result": 2820, "unit": "nM"},
      {"measurement": "GI50", "setting": "MDA-MB-468, cell line MDAMB468", "result": 2820, "unit": "nM"},
      {"measurement": "GI50", "setting": "SK-BR-3, SKBR3 cell line, censored GI50 values", "result": 60.3, "unit": "nM"},
      {"measurement": "GI50", "setting": "SK-BR-3, cell line SKBR3", "result": 60.3, "unit": "nM"},
      {"measurement": "GI50", "setting": "SUM44PE cell line, censored GI50 values", "result": 0.55, "unit": "nM"},
      {"measurement": "GI50", "setting": "SUM52PE, SUM52PE cell line, censored GI50 values", "result": 3.02, "unit": "nM"},
      {"measurement": "GI50", "setting": "SUM52PE, cell line SUM52PE", "result": 3.02, "unit": "nM"},
      {"measurement": "GI50", "setting": "SUM149PT, SUM149PT cell line, censored GI50 values", "result": 9330, "unit": "nM"},
      {"measurement": "GI50", "setting": "SUM149PT, cell line SUM149PT", "result": 9330, "unit": "nM"},
      {"measurement": "GI50", "setting": "SUM225CWN, SUM225CWN cell line, censored GI50 values", "result": 16.6, "unit": "nM"},
      {"measurement": "GI50", "setting": "SUM225CWN, cell line SUM225CWN", "result": 16.6, "unit": "nM"},
      {"measurement": "GI50", "setting": "SUM1315MO2, SUM1315MO2 cell line, censored GI50 values", "result": 3310, "unit": "nM"},
      {"measurement": "GI50", "setting": "SUM-159-PT, SUM159PT cell line, censored GI50 values", "result": 724, "unit": "nM"},
      {"measurement": "GI50", "setting": "SUM-159-PT, cell line SUM159PT", "result": 724, "unit": "nM"},
      {"measurement": "GI50", "setting": "T47D, T47D cell line, censored GI50 values", "result": 490, "unit": "nM"},
      {"measurement": "GI50", "setting": "T47D, cell line T47D", "result": 490, "unit": "nM"},
      {"measurement": "GI50", "setting": "UACC-812, UACC812 cell line, censored GI50 values", "result": 46.8, "unit": "nM"},
      {"measurement": "GI50", "setting": "UACC-812, cell line UACC812", "result": 46.8, "unit": "nM"},
      {"measurement": "GI50", "setting": "UACC-893, cell line UACC893", "result": 166000, "unit": "nM"},
      {"measurement": "GI50", "setting": "cell line HCC2185", "result": 1.62, "unit": "nM"},
      {"measurement": "GI50", "setting": "cell line HCC3153", "result": 5620, "unit": "nM"},
      {"measurement": "GI50", "setting": "cell line MDAMB134V", "result": 6.76, "unit": "nM"},
      {"measurement": "GI50", "setting": "cell line MDAMB175V", "result": 3.72, "unit": "nM"},
      {"measurement": "GI50", "setting": "cell line SUM44PE", "result": 0.55, "unit": "nM"},
      {"measurement": "GI50", "setting": "cell line SUM1315MO", "result": 3310, "unit": "nM"}
    ]}
  ]
}
